Source: patent publication US20230398130A1, “METHODS AND COMPOSITIONS FOR DIFFERENTIATING STEM CELLS” (Massachusetts Institute of Technology, priority 2020, published 2023)
Counter-ions that a name gives are not always drawn.

Experiments:
ISC-enriched organoids [1] = assay: Primary screen, 384-well 2.5-D organoid differentiation (ENR+CD, 6 days): basal lysozyme secretion (LYZ.NS); format: cell-based, murine; conditions: for Dose.FC.LYZ.NS: ENR+CD, 6 days, FC vs plate median; for Z.LYZ.NS: standard z score of FC
Text: (§1) High-throughput screening.

ISC-enriched organoids [2] = assay: Primary screen, 384-well 2.5-D organoid differentiation (ENR+CD, 6 days, Target Selective Inhibitor Library, vs whole-plate median): ATP (CellTiter-Glo 3D, CTG); conditions: for Dose.FC.CTG: ENR+CD, 6 days, FC vs plate median; for Z.CTG: standard z score of FC
ISC-enriched organoids [3] = assay: Primary screen, 384-well 2.5-D organoid differentiation (ENR+CD, 6 days): carbachol-induced lysozyme secretion (LYZ.S); format: cell-based, murine; conditions: ENR+CD, 6 days, FC vs plate median
Text: as §1

Compound | Dose.FC.LYZ.NS (ISC-enriched organoids [1]; Dose 0.08 uM) | Z.LYZ.NS (ISC-enriched organoids [1]; Dose 0.08 uM) | Dose.FC.LYZ.NS (ISC-enriched organoids [1]; Dose 0.40 uM) | Z.LYZ.NS (ISC-enriched organoids [1]; Dose 0.40 uM) | Dose.FC.LYZ.NS (ISC-enriched organoids [1]; Dose 2.00 uM) | Z.LYZ.NS (ISC-enriched organoids [1]; Dose 2.00 uM) | Dose.FC.LYZ.NS (ISC-enriched organoids [1]; Dose 10.00 uM) | Z.LYZ.NS (ISC-enriched organoids [1]; Dose 10.00 uM) | Dose.FC.CTG (ISC-enriched organoids [2]; Dose 0.08 uM) | Z.CTG (ISC-enriched organoids [2]; Dose 0.08 uM) | Dose.FC.CTG (ISC-enriched organoids [2]; Dose 0.40 uM) | Z.CTG (ISC-enriched organoids [2]; Dose 0.40 uM) | Dose.FC.CTG (ISC-enriched organoids [2]; Dose 2.00 uM) | Z.CTG (ISC-enriched organoids [2]; Dose 2.00 uM) | Dose.FC.CTG (ISC-enriched organoids [2]; Dose 10.00 uM) | Z.CTG (ISC-enriched organoids [2]; Dose 10.00 uM) | Dose.FC.LYZ.S (ISC-enriched organoids [3]; Dose 0.08 uM) | Dose.FC.LYZ.S (ISC-enriched organoids [3]; Dose 0.40 uM) | Dose.FC.LYZ.S (ISC-enriched organoids [3]; Dose 2.00 uM) | Dose.FC.LYZ.S (ISC-enriched organoids [3]; Dose 10.00 uM)
Cc1ccc([C@@H]2O[C@H](CO)[C@@H](O)[C@H](O)[C@H]2O)cc1Cc1ccc(-c2ccc(F)cc2)s1 [Canagliflozin] | −0.027 log 2 fold change | −0.233 | −0.046 log 2 fold change | −0.398 | 0.025 log 2 fold change | 0.214 | −0.064 log 2 fold change | −0.556 | −0.240 log 2 fold change | −0.572 | −0.098 log 2 fold change | −0.235 | 0.042 log 2 fold change | 0.101 | −0.079 log 2 fold change | −0.188 | 0.014 log 2 fold change | −0.032 log 2 fold change | 0.028 log 2 fold change | −0.033 log 2 fold change
CC1(COc2ccc3c(c2)ncn3-c2ccc3cccc(N4CCC(N)CC4)c3n2)COC1 [Crenolanib (CP-868596)] | 0.121 log 2 fold change | 1.051 | 0.051 log 2 fold change | 0.441 | 0.122 log 2 fold change | 1.065 | −0.224 log 2 fold change | −1.951 | −0.069 log 2 fold change | −0.165 | −0.025 log 2 fold change | −0.059 | 0.053 log 2 fold change | 0.127 | −0.338 log 2 fold change | −0.808 | 0.094 log 2 fold change | 0.043 log 2 fold change | 0.149 log 2 fold change | −0.292 log 2 fold change
C[C@H]1COC2=C1C(=O)C(=O)c1c2ccc2c1CCCC2(C)C [Cryptotanshinone] | 0.143 log 2 fold change | 1.243 | −0.120 log 2 fold change | −1.047 | −0.182 log 2 fold change | −1.585 | −0.288 log 2 fold change | −2.506 | 0.199 log 2 fold change | 0.475 | −0.027 log 2 fold change | −0.065 | −0.184 log 2 fold change | −0.439 | −0.541 log 2 fold change | −1.292 | 0.156 log 2 fold change | −0.105 log 2 fold change | −0.288 log 2 fold change | −0.432 log 2 fold change
c1ccc(CNc2nc(NCc3ccccc3)c3ccccc3n2)cc1 [DBeQ] | 0.097 log 2 fold change | 0.844 | 0.064 log 2 fold change | 0.558 | −0.048 log 2 fold change | −0.414 | −0.296 log 2 fold change | −2.577 | 0.119 log 2 fold change | 0.285 | −0.013 log 2 fold change | −0.031 | 0.004 log 2 fold change | 0.010 | −1.133 log 2 fold change | −2.706 | 0.045 log 2 fold change | 0.210 log 2 fold change | −0.103 log 2 fold change | −0.423 log 2 fold change
CNC(=O)c1cc(Oc2ccc(NC(=O)Nc3cc(C(C)(C)C)nn3-c3ccc4ncccc4c3)c(F)c2)ccn1 [DCC-2036 (Rebastinib)] | 0.259 log 2 fold change | 2.256 | 0.128 log 2 fold change | 1.116 | 0.073 log 2 fold change | 0.637 | −0.209 log 2 fold change | −1.823 | 0.216 log 2 fold change | 0.516 | 0.218 log 2 fold change | 0.520 | −0.038 log 2 fold change | −0.091 | −0.322 log 2 fold change | −0.769 | 0.358 log 2 fold change | 0.186 log 2 fold change | 0.054 log 2 fold change | −0.244 log 2 fold change
CC(C)Oc1ccc(-c2cnc3c(-c4ccnc5ccccc45)cnn3c2)cc1 [DMH1] | 0.018 log 2 fold change | 0.155 | 0.026 log 2 fold change | 0.231 | 0.014 log 2 fold change | 0.124 | −0.075 log 2 fold change | −0.657 | −0.031 log 2 fold change | −0.075 | −0.079 log 2 fold change | −0.188 | −0.002 log 2 fold change | −0.004 | −0.001 log 2 fold change | −0.003 | 0.078 log 2 fold change | 0.054 log 2 fold change | 0.035 log 2 fold change | −0.092 log 2 fold change
Cc1ccc2c(=O)c3cccc(CC(=O)O)c3oc2c1C [DMXAA (Vadimezan)] | −0.007 log 2 fold change | −0.065 | −0.036 log 2 fold change | −0.317 | −0.038 log 2 fold change | −0.334 | −0.031 log 2 fold change | −0.271 | −0.568 log 2 fold change | −1.357 | −0.629 log 2 fold change | −1.502 | −0.477 log 2 fold change | −1.139 | −0.230 log 2 fold change | −0.550 | −0.091 log 2 fold change | −0.009 log 2 fold change | −0.094 log 2 fold change | −0.118 log 2 fold change
CC(C)(C)c1nc(-c2cccc(NS(=O)(=O)c3c(F)cccc3F)c2F)c(-c2ccnc(N)n2)s1 [Dabrafenib (GSK2118436)] | 0.095 log 2 fold change | 0.830 | 0.049 log 2 fold change | 0.427 | −0.001 log 2 fold change | −0.006 | −0.250 log 2 fold change | −2.178 | −0.134 log 2 fold change | −0.320 | 0.011 log 2 fold change | 0.026 | −0.279 log 2 fold change | −0.667 | −0.800 log 2 fold change | −1.911 | 0.236 log 2 fold change | 0.103 log 2 fold change | 0.019 log 2 fold change | −0.384 log 2 fold change
CCC(CC)CC1(C(=O)Nc2ccccc2SC(=O)C(C)C)CCCCC1 [Dalcetrapib (JTT-705, RO4607381)] | 0.055 log 2 fold change | 0.475 | −0.037 log 2 fold change | −0.324 | −0.034 log 2 fold change | −0.296 | −0.074 log 2 fold change | −0.643 | 0.112 log 2 fold change | 0.268 | −0.006 log 2 fold change | −0.014 | 0.079 log 2 fold change | 0.188 | 0.136 log 2 fold change | 0.324 | 0.049 log 2 fold change | 0.104 log 2 fold change | 0.098 log 2 fold change | −0.113 log 2 fold change
COc1cccc2c1C(=O)c1c(O)c3c(c(O)c1C2=O)C[C@@](O)(C(C)=O)C[C@@H]3O[C@H]1C[C@H](N)[C@H](O)[C@H](C)O1 [Daunorubicin HCl] | −0.136 log 2 fold change | −1.188 | −0.241 log 2 fold change | −2.099 | −0.262 log 2 fold change | −2.280 | −0.260 log 2 fold change | −2.262 | −0.467 log 2 fold change | −1.115 | −0.601 log 2 fold change | −1.436 | −0.817 log 2 fold change | −1.950 | −1.100 log 2 fold change | −2.628 | −0.096 log 2 fold change | −0.329 log 2 fold change | −0.343 log 2 fold change | −0.374 log 2 fold change
